Columns and labels:
Assay in all cases: cell-based
Design in all cases: NanoBRET live-cell target engagement; % occupancy from displacement of tracer K10 on NanoLuc-kinase fusions, mean n=3
Conditions in all cases: HEK293, read-out: % inhibition
[1] = target: RIPK1 (Homo sapiens, UniProt Q13546)
How it was run: (§1)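 Live-cell NanoBRET target engagement: cells expressing kinase–NanoLuc fusion with tracer treated with compound 2 h at 37 °C, 5% CO2. BRET read from donor (450 nm) and acceptor (610/630 nm) emission with 20 μM extracellular NanoLuc inhibitor; % occupancy calculated relative to tracer+DMSO and zero-BRET controls.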

[2] = target: RPS6KA3 (Homo sapiens, UniProt P51812)
How it was run: as §1

[3] = target: TNK1 (Homo sapiens, UniProt Q13470)
How it was run: as §1

[4] = target: MAST3 (Homo sapiens, UniProt O60307)
How it was run: as §1

[5] = target: TLK2 (Homo sapiens, UniProt Q86UE8)
How it was run: as §1

[6] = target: PAK4 (Homo sapiens, UniProt O96013)
How it was run: as §1

[7] = target: MYLK2 (Homo sapiens, UniProt Q9H1R3)
How it was run: as §1

[8] = target: FYN (Homo sapiens, UniProt P06241)
How it was run: as §1

[9] = target: T1, MLTK (Homo sapiens, UniProt Q9NYL2)
T1 construct: gene MAP3K20
How it was run: as §1

[10] = target: BMP2K (Homo sapiens, UniProt Q9NSY1)
How it was run: as §1

[11] = target: LATS1 (Homo sapiens, UniProt O95835)
How it was run: as §1

[12] = target: CDK7 (Homo sapiens, UniProt P50613)
How it was run: as §1

[13] = target: SIK1 (Homo sapiens, UniProt P57059)
How it was run: as §1

[14] = target: TLK1 (Homo sapiens, UniProt Q9UKI8)
How it was run: as §1

[15] = target: IRAK3 (Homo sapiens, UniProt Q9Y616)
How it was run: as §1

[16] = target: PRKAA1 (Homo sapiens, UniProt Q13131)
How it was run: as §1

[17] = target: PLK4 (Homo sapiens, UniProt O00444)
How it was run: as §1

[18] = target: BRSK1 (Homo sapiens, UniProt Q8TDC3)
How it was run: as §1

Sequence of TLK1 (Q9UKI8 whole entry): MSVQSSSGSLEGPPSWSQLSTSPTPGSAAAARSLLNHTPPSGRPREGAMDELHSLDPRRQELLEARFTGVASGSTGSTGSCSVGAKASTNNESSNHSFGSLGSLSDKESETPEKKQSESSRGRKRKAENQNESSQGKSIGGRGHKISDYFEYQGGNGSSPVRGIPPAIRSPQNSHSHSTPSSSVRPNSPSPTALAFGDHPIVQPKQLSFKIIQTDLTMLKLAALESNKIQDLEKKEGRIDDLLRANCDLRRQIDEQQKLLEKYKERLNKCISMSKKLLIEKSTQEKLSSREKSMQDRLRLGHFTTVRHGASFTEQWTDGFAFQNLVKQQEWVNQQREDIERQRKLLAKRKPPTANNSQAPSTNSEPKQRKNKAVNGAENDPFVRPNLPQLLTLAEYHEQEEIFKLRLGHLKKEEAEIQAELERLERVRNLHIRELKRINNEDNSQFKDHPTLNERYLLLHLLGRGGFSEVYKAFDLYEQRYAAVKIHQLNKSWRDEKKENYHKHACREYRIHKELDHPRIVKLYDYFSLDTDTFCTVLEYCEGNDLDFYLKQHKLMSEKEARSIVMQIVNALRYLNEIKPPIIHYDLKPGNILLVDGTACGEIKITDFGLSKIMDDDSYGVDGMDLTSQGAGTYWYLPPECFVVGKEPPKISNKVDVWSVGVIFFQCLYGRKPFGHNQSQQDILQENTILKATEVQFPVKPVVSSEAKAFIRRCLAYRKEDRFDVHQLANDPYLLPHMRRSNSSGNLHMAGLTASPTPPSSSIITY
Sequence of SIK1 (P57059 whole entry): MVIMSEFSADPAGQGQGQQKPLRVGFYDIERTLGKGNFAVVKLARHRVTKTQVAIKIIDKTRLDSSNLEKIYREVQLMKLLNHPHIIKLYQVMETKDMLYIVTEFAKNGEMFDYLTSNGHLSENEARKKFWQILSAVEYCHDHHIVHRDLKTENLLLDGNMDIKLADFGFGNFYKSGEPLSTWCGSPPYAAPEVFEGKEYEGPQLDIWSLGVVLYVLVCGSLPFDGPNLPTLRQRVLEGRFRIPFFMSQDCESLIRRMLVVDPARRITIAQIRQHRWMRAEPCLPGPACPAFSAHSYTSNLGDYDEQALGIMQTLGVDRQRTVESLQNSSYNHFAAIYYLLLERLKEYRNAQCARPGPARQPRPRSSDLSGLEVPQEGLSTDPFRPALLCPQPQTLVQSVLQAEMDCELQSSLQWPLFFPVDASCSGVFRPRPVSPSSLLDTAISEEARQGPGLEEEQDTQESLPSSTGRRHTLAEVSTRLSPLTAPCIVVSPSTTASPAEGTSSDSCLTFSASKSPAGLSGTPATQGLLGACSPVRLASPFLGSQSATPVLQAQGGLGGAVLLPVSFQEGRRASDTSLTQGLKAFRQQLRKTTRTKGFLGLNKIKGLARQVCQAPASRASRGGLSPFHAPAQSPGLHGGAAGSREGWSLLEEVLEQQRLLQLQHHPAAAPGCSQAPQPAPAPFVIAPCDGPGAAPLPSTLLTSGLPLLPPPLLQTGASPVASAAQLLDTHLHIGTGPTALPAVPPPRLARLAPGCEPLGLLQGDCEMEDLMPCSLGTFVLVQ
Sequence of RIPK1 (Q13546 whole entry, the tested form may be a part): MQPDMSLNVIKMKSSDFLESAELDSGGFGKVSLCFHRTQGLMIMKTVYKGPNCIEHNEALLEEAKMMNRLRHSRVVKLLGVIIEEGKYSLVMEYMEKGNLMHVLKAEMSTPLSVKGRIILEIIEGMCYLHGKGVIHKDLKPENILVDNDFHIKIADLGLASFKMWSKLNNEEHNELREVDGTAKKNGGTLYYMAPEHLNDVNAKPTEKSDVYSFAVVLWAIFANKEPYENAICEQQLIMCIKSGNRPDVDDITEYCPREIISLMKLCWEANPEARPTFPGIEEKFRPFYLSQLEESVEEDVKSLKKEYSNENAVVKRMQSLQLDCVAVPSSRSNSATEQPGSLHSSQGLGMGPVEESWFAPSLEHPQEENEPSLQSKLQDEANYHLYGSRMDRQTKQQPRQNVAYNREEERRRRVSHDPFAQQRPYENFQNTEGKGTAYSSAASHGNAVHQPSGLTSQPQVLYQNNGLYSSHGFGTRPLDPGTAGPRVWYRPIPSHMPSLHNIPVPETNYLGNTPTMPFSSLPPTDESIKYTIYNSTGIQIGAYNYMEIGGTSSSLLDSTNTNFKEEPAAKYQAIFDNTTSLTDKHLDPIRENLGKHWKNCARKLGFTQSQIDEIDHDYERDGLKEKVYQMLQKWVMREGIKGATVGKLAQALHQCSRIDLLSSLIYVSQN
Sequence of LATS1 (O95835 whole entry): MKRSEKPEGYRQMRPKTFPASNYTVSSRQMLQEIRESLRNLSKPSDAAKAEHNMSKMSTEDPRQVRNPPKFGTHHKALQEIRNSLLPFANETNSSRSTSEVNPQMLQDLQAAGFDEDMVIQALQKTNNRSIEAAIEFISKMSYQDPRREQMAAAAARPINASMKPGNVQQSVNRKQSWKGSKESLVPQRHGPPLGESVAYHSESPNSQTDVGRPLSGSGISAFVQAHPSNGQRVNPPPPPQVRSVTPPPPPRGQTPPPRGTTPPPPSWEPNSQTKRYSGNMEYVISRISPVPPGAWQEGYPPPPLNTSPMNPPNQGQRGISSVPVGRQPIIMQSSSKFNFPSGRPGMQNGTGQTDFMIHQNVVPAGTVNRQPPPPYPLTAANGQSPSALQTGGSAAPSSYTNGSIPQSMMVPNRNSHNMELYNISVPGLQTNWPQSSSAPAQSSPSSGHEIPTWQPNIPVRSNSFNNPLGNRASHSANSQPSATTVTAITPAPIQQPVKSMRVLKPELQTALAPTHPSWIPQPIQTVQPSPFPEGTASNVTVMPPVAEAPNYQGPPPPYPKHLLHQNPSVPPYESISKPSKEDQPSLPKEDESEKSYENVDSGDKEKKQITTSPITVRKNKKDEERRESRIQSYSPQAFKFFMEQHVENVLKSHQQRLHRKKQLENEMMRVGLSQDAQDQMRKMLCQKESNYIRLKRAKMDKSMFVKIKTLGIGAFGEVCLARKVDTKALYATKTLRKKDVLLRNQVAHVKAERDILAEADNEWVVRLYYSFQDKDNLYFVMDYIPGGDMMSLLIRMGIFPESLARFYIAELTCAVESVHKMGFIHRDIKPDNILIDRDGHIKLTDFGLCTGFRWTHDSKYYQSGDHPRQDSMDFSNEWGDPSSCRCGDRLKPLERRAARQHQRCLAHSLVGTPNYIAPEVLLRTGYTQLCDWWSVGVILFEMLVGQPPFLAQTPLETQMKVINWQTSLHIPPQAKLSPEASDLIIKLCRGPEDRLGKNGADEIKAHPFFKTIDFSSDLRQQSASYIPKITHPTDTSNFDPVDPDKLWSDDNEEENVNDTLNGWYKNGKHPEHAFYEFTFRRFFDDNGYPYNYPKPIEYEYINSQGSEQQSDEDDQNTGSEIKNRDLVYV
Sequence of MYLK2 (Q9H1R3 whole entry): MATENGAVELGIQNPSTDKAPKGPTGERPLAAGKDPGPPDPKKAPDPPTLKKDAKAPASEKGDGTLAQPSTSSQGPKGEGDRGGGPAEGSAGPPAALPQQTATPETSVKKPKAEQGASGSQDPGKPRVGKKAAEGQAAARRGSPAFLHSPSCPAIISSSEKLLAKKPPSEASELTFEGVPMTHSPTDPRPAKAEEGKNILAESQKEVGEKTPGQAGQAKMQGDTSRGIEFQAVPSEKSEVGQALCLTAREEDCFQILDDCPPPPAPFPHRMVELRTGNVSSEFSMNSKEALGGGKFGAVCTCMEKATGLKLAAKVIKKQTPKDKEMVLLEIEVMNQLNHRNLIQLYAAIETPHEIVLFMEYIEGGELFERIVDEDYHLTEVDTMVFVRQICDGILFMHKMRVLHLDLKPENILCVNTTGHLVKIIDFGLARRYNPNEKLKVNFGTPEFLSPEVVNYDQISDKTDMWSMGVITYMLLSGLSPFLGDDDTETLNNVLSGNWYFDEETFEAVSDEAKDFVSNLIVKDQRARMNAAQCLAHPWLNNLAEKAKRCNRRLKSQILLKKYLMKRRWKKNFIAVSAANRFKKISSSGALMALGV
Sequence of TNK1 (Q13470 whole entry): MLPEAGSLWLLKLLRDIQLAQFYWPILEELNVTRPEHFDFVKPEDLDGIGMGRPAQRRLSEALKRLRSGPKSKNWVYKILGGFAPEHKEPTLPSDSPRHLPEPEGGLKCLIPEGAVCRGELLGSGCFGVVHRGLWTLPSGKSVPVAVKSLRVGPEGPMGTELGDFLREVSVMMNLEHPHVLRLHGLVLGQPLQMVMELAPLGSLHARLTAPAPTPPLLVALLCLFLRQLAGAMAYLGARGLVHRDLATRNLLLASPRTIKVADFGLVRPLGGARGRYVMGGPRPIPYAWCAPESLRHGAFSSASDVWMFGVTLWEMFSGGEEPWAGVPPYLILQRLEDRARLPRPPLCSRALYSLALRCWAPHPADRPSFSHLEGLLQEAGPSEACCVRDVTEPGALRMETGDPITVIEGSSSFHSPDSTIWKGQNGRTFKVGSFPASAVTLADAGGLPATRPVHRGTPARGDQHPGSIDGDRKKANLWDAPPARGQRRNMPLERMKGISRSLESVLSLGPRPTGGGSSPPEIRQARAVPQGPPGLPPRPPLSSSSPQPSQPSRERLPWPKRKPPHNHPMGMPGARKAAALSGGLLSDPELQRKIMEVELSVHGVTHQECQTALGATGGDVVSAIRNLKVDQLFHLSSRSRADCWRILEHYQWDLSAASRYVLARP
Sequence of CDK7 (P50613 whole entry): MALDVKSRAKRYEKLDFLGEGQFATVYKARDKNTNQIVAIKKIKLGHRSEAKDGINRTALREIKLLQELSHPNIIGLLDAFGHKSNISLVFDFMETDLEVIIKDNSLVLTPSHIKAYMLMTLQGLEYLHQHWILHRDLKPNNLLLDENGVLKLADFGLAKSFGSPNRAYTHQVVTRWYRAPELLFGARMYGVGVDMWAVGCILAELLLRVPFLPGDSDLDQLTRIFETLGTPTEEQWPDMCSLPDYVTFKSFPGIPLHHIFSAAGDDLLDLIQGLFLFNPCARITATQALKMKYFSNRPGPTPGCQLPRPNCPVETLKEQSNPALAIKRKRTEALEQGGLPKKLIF

C[C@@H](Oc1cc(-c2cnn(C3CCNCC3)c2)cnc1N)c1c(Cl)ccc(F)c1Cl [crizotinib]
inhibition at 1 µM [1]: 23% | inhibition at 1 µM [2]: -7% | inhibition at 1 µM [3]: -6% | inhibition at 1 µM [4]: -1% | inhibition at 1 µM [5]: 0% | inhibition at 1 µM [6]: 1% | inhibition at 1 µM [7]: -16% | inhibition at 1 µM [8]: -2% | inhibition at 1 µM [9]: -3% | inhibition at 1 µM [10]: 11% | inhibition at 1 µM [11]: -10% | inhibition at 1 µM [12]: 32% | inhibition at 1 µM [13]: -4% | inhibition at 1 µM [14]: -5% | inhibition at 1 µM [15]: 42% | inhibition at 1 µM [16]: -1% | inhibition at 1 µM [17]: 4% | inhibition at 1 µM [18]: -1%

Source: article PMC8449129, “Single tracer-based protocol for broad-spectrum kinase profiling in live cells with NanoBRET” (STAR Protocols, 2021)
